{
  "source": "patent US11612595B2",
  "about": "“Compositions and methods for treating rheumatoid arthritis” (Generos Biopharma Ltd., priority 2017, dated 2023)",
  "test_system": "collagen-induced arthritis (CIA) model mice",
  "experiment": "collagen-induced arthritis (CIA) model mice, clinical scores",
  "format": "in vivo, DBA/1J mice",
  "set-up": "key to Pairwise analysis of the difference between groups (clinical scores), vs Model / Pairwise analysis of the difference between groups (clinical scores), S5i 5 mpk vs S5i 10 mpk: p values from pairwise comparisons",
  "text": "FIGS. 8A and 8B show graphs depicting clinical score changes in four groups of CIA mouse models under different treatment schemes. In FIG. 8A, different chemicals (DMSO as control for Model group, blank group is left untreated) were daily administered intraperitoneally at the indicated doses from the first injection of the collagen agent. In FIG. 8B, different chemicals were daily administered intraperitoneally from the second injection of collagen agent at the indicated doses. Clinical scores were given double-blindly according to the scoring scheme every 2 days.\nFIGS. 9A and 9B show graphs of clinical scores at day 44 for each group, the overall difference analyzed by ANOVA is significant p<0.0001, while the p value between Model and each individual group is labeled above the bar * p<0.05, ** p<0.01.\nEight of nine groups (10 mice in each group) of male DBA/1J mice (age 9-10 weeks. H-2q haplotype) were subject to CIA model induction and then to different treatment schemes. The group of mice without CIA model induction was used as a control (Blank). Specifically, Bovine type II collagen (Chondrex) was mixed with Freund's complete adjuvant (CFA) (Sigma) and injected s.c. to flank near tail of the mice twice (the second injection was made 21 days after the first injection) to create CIA model mice. The eight groups of CIA model mice were separated into four prophylactic groups and four therapeutic groups, with each group subjected to different treatments.\nIn the four prophylactic groups, daily treatments started from the date when the first CIA induction injection was made. The first of the four prophylactic groups of CIA model mice were treated with 30% PEG300 (containing 4% DMSO-all 30% PEG300 in the application contains 4% DMSO) solution via intraperitoneal injection as controls (Model). The second of the four prophylactic groups of CIA model mice were treated with nicotinohydrazide (Calbiochem) 10 mg/kg in 30% PEG300 solution via intraperitoneal injection (573108 10 mg/kg). The third of the four prophylactic groups of CIA model mice were treated with nicotinohydrazide (Calbiochem) 5 mg/kg in 30% PEG300 solution via intraperitoneal injection (573108 5 mg/kg). The last of the four prophylactic groups of CIA model mice were treated with Tofacitinib (Selleckchem) 5 mg/kg in 30% PEG300 solution via intraperitoneal injection (Tofacitinib 5 mg/kg).\nIn the four therapeutic groups, daily treatments started from the date when the second CIA induction injection was made. The first of the four therapeutic groups of CIA model mice were treated with 30% PEG300 solution via intraperitoneal injection as controls (Model). The second of the four therapeutic groups of CIA model mice were treated with nicotinohydrazide (Calbiochem) 10 mg/kg in 30% PEG300 solution via intraperitoncal injection (573108 10 mg/kg). The third of the four therapeutic groups of CIA model mice were treated with nicotinohydrazide (Calbiochem) 5 mg/kg in 30% PEG300 solution via intraperitoneal injection (573108 5 mg/kg). The last of the four therapeutic groups of CIA model mice were treated with Tofacitinib (Selleckchem) 5 mg/kg in 30% PEG300 solution via intraperitoncal injection (Tofacitinib 5 mg/kg).\nThe inventors collected data of the weight, and clinical scores of the mice every 2-3 days and performed statistic analysis. The method used in the statistic analysis was Student's t test, unpaired, two-tailed analysis.\nThe clinical scores were derived according to the scheme in Table 2.",
  "data": [
    {"smiles": "O=C(N/N=C/c1coc2ccccc2c1=O)c1cccnc1", "note": "[nicotinohydrazide, N′-((4-Oxo-4H-chromen-3-yl)methylene)nicotinohydrazide]", "values": [
      {"measurement": "clinical scores compared to Model", "setting": "prophylactic groups, 5 mg/kg i.p. daily", "value": "reduced clinical scores"},
      {"measurement": "clinical scores compared to Model", "setting": "prophylactic groups, 10 mg/kg i.p. daily", "value": "reduced clinical scores"},
      {"measurement": "Pairwise analysis of the difference between groups (clinical scores), vs Model", "setting": "prophylactic groups, 5 mpk, Day 28", "value": 0.1019},
      {"measurement": "Pairwise analysis of the difference between groups (clinical scores), vs Model", "setting": "prophylactic groups, 5 mpk, Day 30", "value": 0.0410},
      {"measurement": "Pairwise analysis of the difference between groups (clinical scores), vs Model", "setting": "prophylactic groups, 5 mpk, Day 32", "value": 0.0740},
      {"measurement": "Pairwise analysis of the difference between groups (clinical scores), vs Model", "setting": "prophylactic groups, 5 mpk, Day 35", "value": 0.0615},
      {"measurement": "Pairwise analysis of the difference between groups (clinical scores), vs Model", "setting": "prophylactic groups, 5 mpk, Day 37", "value": 0.1101},
      {"measurement": "Pairwise analysis of the difference between groups (clinical scores), vs Model", "setting": "prophylactic groups, 5 mpk, Day 39", "value": 0.0010},
      {"measurement": "Pairwise analysis of the difference between groups (clinical scores), vs Model", "setting": "prophylactic groups, 5 mpk, Day 42", "value": 0.0185},
      {"measurement": "Pairwise analysis of the difference between groups (clinical scores), vs Model", "setting": "prophylactic groups, 5 mpk, Day 44", "value": 0.2729},
      {"measurement": "Pairwise analysis of the difference between groups (clinical scores), vs Model", "setting": "prophylactic groups, 10 mpk, Day 28", "value": 0.1491},
      {"measurement": "Pairwise analysis of the difference between groups (clinical scores), vs Model", "setting": "prophylactic groups, 10 mpk, Day 30", "value": 0.1452},
      {"measurement": "Pairwise analysis of the difference between groups (clinical scores), vs Model", "setting": "prophylactic groups, 10 mpk, Day 32", "value": 0.1256},
      {"measurement": "Pairwise analysis of the difference between groups (clinical scores), vs Model", "setting": "prophylactic groups, 10 mpk, Day 35", "value": 0.0354},
      {"measurement": "Pairwise analysis of the difference between groups (clinical scores), vs Model", "setting": "prophylactic groups, 10 mpk, Day 37", "value": 0.0614},
      {"measurement": "Pairwise analysis of the difference between groups (clinical scores), vs Model", "setting": "prophylactic groups, 10 mpk, Day 39", "value": 0.0008},
      {"measurement": "Pairwise analysis of the difference between groups (clinical scores), vs Model", "setting": "prophylactic groups, 10 mpk, Day 42", "value": 0.0033},
      {"measurement": "Pairwise analysis of the difference between groups (clinical scores), vs Model", "setting": "prophylactic groups, 10 mpk, Day 44", "value": 0.0128},
      {"measurement": "Pairwise analysis of the difference between groups (clinical scores), S5i 5 mpk vs S5i 10 mpk", "setting": "prophylactic groups, Day 28", "value": 0.7387},
      {"measurement": "Pairwise analysis of the difference between groups (clinical scores), S5i 5 mpk vs S5i 10 mpk", "setting": "prophylactic groups, Day 30", "value": 0.5943},
      {"measurement": "Pairwise analysis of the difference between groups (clinical scores), S5i 5 mpk vs S5i 10 mpk", "setting": "prophylactic groups, Day 32", "value": 0.8722},
      {"measurement": "Pairwise analysis of the difference between groups (clinical scores), S5i 5 mpk vs S5i 10 mpk", "setting": "prophylactic groups, Day 35", "value": 0.7717},
      {"measurement": "Pairwise analysis of the difference between groups (clinical scores), S5i 5 mpk vs S5i 10 mpk", "setting": "prophylactic groups, Day 37", "value": 0.8686},
      {"measurement": "Pairwise analysis of the difference between groups (clinical scores), S5i 5 mpk vs S5i 10 mpk", "setting": "prophylactic groups, Day 39", "value": 0.9741},
      {"measurement": "Pairwise analysis of the difference between groups (clinical scores), S5i 5 mpk vs S5i 10 mpk", "setting": "prophylactic groups, Day 42", "value": 0.1588},
      {"measurement": "Pairwise analysis of the difference between groups (clinical scores), S5i 5 mpk vs S5i 10 mpk", "setting": "prophylactic groups, Day 44", "value": 0.0717},
      {"measurement": "clinical scores compared to Model", "setting": "therapeutic groups, 5 mg/kg i.p. daily", "value": "reduced clinical scores"},
      {"measurement": "clinical scores compared to Model", "setting": "therapeutic groups, 10 mg/kg i.p. daily", "value": "reduced clinical scores"},
      {"measurement": "Pairwise analysis of the difference between groups (clinical scores), vs Model", "setting": "therapeutic groups, 5 mpk, Day 28", "value": 0.0117},
      {"measurement": "Pairwise analysis of the difference between groups (clinical scores), vs Model", "setting": "therapeutic groups, 5 mpk, Day 30", "value": 0.0295},
      {"measurement": "Pairwise analysis of the difference between groups (clinical scores), vs Model", "setting": "therapeutic groups, 5 mpk, Day 32", "value": 0.0032},
      {"measurement": "Pairwise analysis of the difference between groups (clinical scores), vs Model", "setting": "therapeutic groups, 5 mpk, Day 35", "value": 0.0025},
      {"measurement": "Pairwise analysis of the difference between groups (clinical scores), vs Model", "setting": "therapeutic groups, 5 mpk, Day 37", "value": 0.0024},
      {"measurement": "Pairwise analysis of the difference between groups (clinical scores), vs Model", "setting": "therapeutic groups, 5 mpk, Day 39", "value": 0.0019},
      {"measurement": "Pairwise analysis of the difference between groups (clinical scores), vs Model", "setting": "therapeutic groups, 5 mpk, Day 42", "value": 0.0044},
      {"measurement": "Pairwise analysis of the difference between groups (clinical scores), vs Model", "setting": "therapeutic groups, 5 mpk, Day 44", "value": 0.0012},
      {"measurement": "Pairwise analysis of the difference between groups (clinical scores), vs Model", "setting": "therapeutic groups, 10 mpk, Day 28", "value": 0.0399},
      {"measurement": "Pairwise analysis of the difference between groups (clinical scores), vs Model", "setting": "therapeutic groups, 10 mpk, Day 30", "value": 0.0190},
      {"measurement": "Pairwise analysis of the difference between groups (clinical scores), vs Model", "setting": "therapeutic groups, 10 mpk, Day 32", "value": 0.0080},
      {"measurement": "Pairwise analysis of the difference between groups (clinical scores), vs Model", "setting": "therapeutic groups, 10 mpk, Day 35", "value": 0.1008},
      {"measurement": "Pairwise analysis of the difference between groups (clinical scores), vs Model", "setting": "therapeutic groups, 10 mpk, Day 37", "value": 0.1336},
      {"measurement": "Pairwise analysis of the difference between groups (clinical scores), vs Model", "setting": "therapeutic groups, 10 mpk, Day 39", "value": 0.1189},
      {"measurement": "Pairwise analysis of the difference between groups (clinical scores), vs Model", "setting": "therapeutic groups, 10 mpk, Day 42", "value": 0.0820},
      {"measurement": "Pairwise analysis of the difference between groups (clinical scores), vs Model", "setting": "therapeutic groups, 10 mpk, Day 44", "value": 0.0397},
      {"measurement": "Pairwise analysis of the difference between groups (clinical scores), S5i 5 mpk vs S5i 10 mpk", "setting": "therapeutic groups, Day 28", "value": 0.4163},
      {"measurement": "Pairwise analysis of the difference between groups (clinical scores), S5i 5 mpk vs S5i 10 mpk", "setting": "therapeutic groups, Day 30", "value": 0.8721},
      {"measurement": "Pairwise analysis of the difference between groups (clinical scores), S5i 5 mpk vs S5i 10 mpk", "setting": "therapeutic groups, Day 32", "value": 0.4838},
      {"measurement": "Pairwise analysis of the difference between groups (clinical scores), S5i 5 mpk vs S5i 10 mpk", "setting": "therapeutic groups, Day 35", "value": 0.0249},
      {"measurement": "Pairwise analysis of the difference between groups (clinical scores), S5i 5 mpk vs S5i 10 mpk", "setting": "therapeutic groups, Day 37", "value": 0.0183},
      {"measurement": "Pairwise analysis of the difference between groups (clinical scores), S5i 5 mpk vs S5i 10 mpk", "setting": "therapeutic groups, Day 39", "value": 0.0183},
      {"measurement": "Pairwise analysis of the difference between groups (clinical scores), S5i 5 mpk vs S5i 10 mpk", "setting": "therapeutic groups, Day 42", "value": 0.0777},
      {"measurement": "Pairwise analysis of the difference between groups (clinical scores), S5i 5 mpk vs S5i 10 mpk", "setting": "therapeutic groups, Day 44", "value": 0.0842}
    ]}
  ]
}
